A short description of data set [1]: PK analysis of lartesertib in plasma (non-compartmental). It is filed as in vivo, human. The protocol:
The PK of lartesertib was characterized during dose escalation using an intensive PK sample collection schedule. Blood samples were collected at multiple timepoints during Cycle 1, including on Day 1 (pre-dose at 0 hours and post-dose at 0.5, 1, 2, 3, 4, 6, 8, and 12 hours) and Day 8 (pre-dose at 0 hours and post-dose at 1, 2, 3, 4, 6, 8, and 12 hours). PK parameters were calculated from individual plasma concentration–time data using non-compartmental methods.

Data set [2] relates to ctDNA somatic variant allele frequency. Description: Plasma ctDNA next-generation sequencing (Guardant Health OMNI panel), molecular response. It is filed as in vivo, human. The note with it: 21 evaluable patients. The protocol:
(§1) Circulating immune factors (e.g., IFN-β, IFN-γ, IL-1β, IL-2, IL-4, IL-6, IL-8, IL-10, IL-12p70, IL-13, TNF-α, and NKG2DL) were assessed using immunofluorescence assays. Additionally, blood samples were tested for plasma ctDNA by next-generation sequencing at Guardant Health using the OMNI panel. This analysis was conducted to evaluate surrogate markers of tumor dynamics, sensitivity, and resistance to treatment. Molecular response (MR) was assessed and defined as strongest change of—per visit averaged—somatic variant allele frequency (VAF) against the pretreatment level as follows: Best delta mean VAF = MIN (meanVAFvisiti – meanVAFpretreatment / meanVAFpretreatment)

Data set [3] deals with immune cell subsets and circulating immune factors. Description: Immunophenotyping by flow cytometry and circulating immune factors. The class given is in vivo, human. On the procedure:
Serial blood samples collected at each visit were tested for total blood cell counts and immune cell subsets (e.g., T cells, B cells, and NK cells) to evaluate immunophenotyping by flow cytometry.
as §1

In data set [4] the test system is patient-derived xenograft models of triple-negative breast cancer. Further details: method as in PMID 37079339. The note with it: lartesertib in combination with gartisertib; cited from earlier work.
Data set [5] relates to patients with advanced solid tumors. Also noted: method as in PMID 38407317. The note with it: combination of lartesertib and tuvusertib; cited from earlier work.

“Also recorded” adds a separate entry of the source.

`COc1cc2ncc3c(c2cc1-c1cn(C)nc1C)n(-c1c(F)cncc1OC)c(=O)n3C` [lartesertib]: the Exposure versus dose entry in data set [1] (100-400 mg once daily) is given as “increased in a dose-related manner; also recorded: increased in a dose-dependent manner”. For the same compound, the half-life in data set [1] (human, plasma, oral, across 100-400 mg once daily, Day 1 and Day 8, read-out: Geometric mean elimination half-life (t1/2)) was in the range of 5 to 7 h. The Tmax in data set [1] (human, plasma, oral, across 100-400 mg once daily, Day 1 and Day 8, read-out: Median time to reach maximum observed plasma concentration (tmax)) was 1 to 2 h. For the same compound, the “Patients with molecular response (ctDNA VAF decrease of ≥50% from baseline)” value in data set [2] is on record as “four patients of 21 evaluable patients”. In addition, the NK cell subsets entry in data set [3] (across all DLs) is reported as “negative trend”. Moreover, the “Cytokine modulation (IFN-γ, IL-10, IL-6, IL-8, and TNF-α)” value in data set [3] (among different DLs) was “No relevant trends”. Moreover, the “Levels of most explored immune cell subsets” value in data set [3] (tested DLs, incl. myeloid-derived suppressor cells, T and B lymphocytes) is listed as “did not cause any significant change”. In addition, the Tumor control rate in data set [4] is on record as 42%. In addition, the “Patients experiencing SD for >16 weeks” value in data set [5] is reported as “six of 42”.

Values taken from publication PMC12580772, “A First-in-Human Study of ATM Inhibitor Lartesertib as Monotherapy in Patients with Advanced Solid Tumors” (Clinical Cancer Research, 2025).
